Source: the supplement of paper PMC10307832

What was measured:
Assay in all cases: relative viability (nuclei count vs DMSO), 5 days (fraction); higher = more cells survive
Bicalutamide + AZD7762 = compound: CC(O)(CS(=O)(=O)c1ccc(F)cc1)C(=O)Nc1ccc(C#N)c(C(F)(F)F)c1 [Bicalutamide] + NC(=O)Nc1cc(-c2cccc(F)c2)sc1C(=O)N[C@H]1CCCNC1 [AZD7762] (partner 0.2 µM)
In short: (§1)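 A single step with final 0.05% Triton X-100, 1% formaldehyde and 1 ug/ml Hoechst fixed the cells and stained nuclei 5 days after treatment. Lung cancer cell lines in 1536-well plates had been treated by pin tool the day after seeding with one drug alone or a fixed anchor-drug dose plus five library-drug doses (not always all listed) in √10 steps, and nuclei were counted on 4× images. Relative viability is the ratio of nuclei in treated wells to nuclei in vehicle wells, taken as the median of duplicate plates.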

[1] = compound: CC(O)(CS(=O)(=O)c1ccc(F)cc1)C(=O)Nc1ccc(C#N)c(C(F)(F)F)c1 [Bicalutamide] + CS(=O)(=O)N1CCN(Cc2cc3nc(-c4cccc5[nH]ncc45)nc(N4CCOCC4)c3s2)CC1 [Pictilisib] (partner 1 µM)
In short: as §1

[2] = compound: C(C(=O)C(=O)O)Br [Bromopyruvate] + CCNC(=O)c1noc(-c2cc(C(C)C)c(O)cc2O)c1-c1ccc(CN2CCOCC2)cc1 [Luminespib] (partner 0.01 µM)
In short: as §1

Bromopyruvate + Olaparib = compound: C(C(=O)C(=O)O)Br [Bromopyruvate] + O=C(c1cc(Cc2n[nH]c(=O)c3ccccc23)ccc1F)N1CCN(C(=O)C2CC2)CC1 [Olaparib] (partner 8 µM)
In short: as §1

| Cell Line | relative viability (Bicalutamide + AZD7762; first compound 0.08 µM) | relative viability (Bicalutamide + AZD7762; first compound 0.253 µM) | relative viability (Bicalutamide + AZD7762; first compound 0.8 µM) | relative viability (Bicalutamide + AZD7762; first compound 2.53 µM) | relative viability ([1]; first compound 0.08 µM) | relative viability ([1]; first compound 0.253 µM) | relative viability ([1]; first compound 0.8 µM) | relative viability ([1]; first compound 2.53 µM) | relative viability ([2]; first compound 1 µM) | relative viability ([2]; first compound 3.162 µM) | relative viability ([2]; first compound 10 µM) | relative viability ([2]; first compound 31.62 µM) | relative viability ([2]; first compound 100 µM) | relative viability (Bromopyruvate + Olaparib; first compound 1 µM) | relative viability (Bromopyruvate + Olaparib; first compound 3.162 µM) | relative viability (Bromopyruvate + Olaparib; first compound 10 µM) | relative viability (Bromopyruvate + Olaparib; first compound 31.62 µM) | relative viability (Bromopyruvate + Olaparib; first compound 100 µM) |
| --- | --- | --- | --- | --- | --- | --- | --- | --- | --- | --- | --- | --- | --- | --- | --- | --- | --- | --- |
| NCI-H2347 | 0.797 | 0.753 | 0.753 | 0.73 | 0.735 | 0.728 | 0.876 | 0.632 | 0.783 | 0.522 | 0.686 | 0.401 | 0.702 | 0.56 | 0.536 | 0.511 | 0.559 | 0.57 |
| NCI-H1395 | 0.402 | 0.399 | 0.394 | 0.377 | 0.596 | 0.519 | 0.687 | 0.456 | 0.661 | 0.705 | 0.932 | 0.754 | 0.992 | 0.447 | 0.452 | 0.476 | 0.52 | 0.443 |
| 201T | 0.637 | 0.408 | 0.586 | 0.599 | 0.685 | 0.658 | 0.742 | 0.674 | 1.04 | 1.04 | 1.08 | 1.05 | 1.12 | 0.862 | 0.824 | 0.86 | 0.84 | 0.88 |
| NCI-H2170 | 0.805 | 0.817 | 1.26 | 0.902 | 0.308 | 0.298 | 0.289 | 0.302 | 0.75 | 0.979 | 0.689 | 0.574 | 0.583 | 0.626 | 0.556 | 0.625 | 0.576 | 0.56 |
| NCI-H727 | 0.794 | 0.563 | 0.54 | 0.576 | 0.415 | 0.456 | 0.377 | 0.423 | 0.277 | 0.571 | 0.218 | 0.377 | 0.592 | 0.666 | 0.707 | 0.764 | 0.79 | 0.634 |
